According to PubChem BioAssay (NCI):
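Growth conditions: 96-well plates. Treatment: test compound, 48 hours, 5 concentrations. Analysis: linear interpolation between bracketing concentrations; unreached endpoints set to highest concentration. Abbreviation: GI50, concentration required for 50% inhibition of growth. Definition used: TGI = concentration required for complete inhibition of growth.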

Columns and labels:
Test in all cases: DTP human tumour cell line panel, 48 h
HL-60(TB) leukemia = system: HL-60(TB) leukemia
HT29 colon = system: HT29 colon
MOLT-4 leukemia = system: MOLT-4 leukemia
OVCAR-3 ovarian = system: OVCAR-3 ovarian
OVCAR-8 ovarian = system: OVCAR-8 ovarian
RXF 393 renal = system: RXF 393 renal
SNB-19 CNS = system: SNB-19 CNS
SR leukemia = system: SR leukemia
SW-620 colon = system: SW-620 colon
BT-549 breast = system: BT-549 breast

Compound | TGI (HL-60(TB) leukemia) | TGI (HT29 colon) | TGI (MOLT-4 leukemia) | TGI (OVCAR-3 ovarian) | TGI (OVCAR-8 ovarian) | TGI (RXF 393 renal) | TGI (SNB-19 CNS) | TGI (SR leukemia) | TGI (SW-620 colon) | TGI (BT-549 breast) | GI50 (BT-549 breast) | GI50 (HL-60(TB) leukemia) | GI50 (HT29 colon) | GI50 (MOLT-4 leukemia) | GI50 (OVCAR-3 ovarian) | GI50 (OVCAR-8 ovarian) | GI50 (RXF 393 renal) | GI50 (SNB-19 CNS) | GI50 (SW-620 colon) | GI50 (SR leukemia)
CCCCCCCCCCCCCCCc1nc(SCC(=O)O)n[nH]1 | > 100 µM | > 100 µM | > 100 µM | > 100 µM | > 100 µM | > 100 µM | > 100 µM | > 100 µM | > 100 µM | – | – | – | – | – | – | – | – | – | – | –
C[C@]12CC[C@H](O)CC1CCC[C@@H]2O (some centres not stated) | > 100 µM | > 100 µM | > 100 µM | > 100 µM | > 100 µM | > 100 µM | > 100 µM | – | > 100 µM | – | – | – | – | – | – | – | – | – | – | –
CC1(C)OC(=O)C(c2ccsc2)C(=O)O1 | > 100 µM | > 100 µM | > 100 µM | > 100 µM | > 100 µM | > 100 µM | > 100 µM | > 100 µM | > 100 µM | – | – | – | – | – | – | – | – | – | – | –
O=c1c2ccc(Br)cc2nc(-c2ccccc2)n1NC1OC(CO)C(O)C(O)C1O (configuration not stated) | > 100 µM | > 100 µM | > 100 µM | > 100 µM | > 100 µM | – | > 100 µM | – | > 100 µM | – | – | – | – | – | – | – | – | – | – | –
OC1OC2COC(c3ccccc3)OC2C(O)C1O (configuration not stated) | > 100 µM | > 100 µM | > 100 µM | > 100 µM | > 100 µM | – | > 100 µM | – | > 100 µM | – | – | – | – | – | – | – | – | – | – | –
Fc1cccc(C2SCc3nc4ccccc4n32)c1 (configuration not stated) | 62.8 µM | > 100 µM | > 100 µM | > 100 µM | > 100 µM | > 10 µM | > 100 µM | > 100 µM | > 100 µM | – | – | – | – | – | – | – | – | – | – | –
Cc1cc2c(C=O)[nH]nc2c(C#N)c1C | – | > 100 µM | > 100 µM | > 100 µM | > 100 µM | – | > 100 µM | – | > 100 µM | – | – | – | – | – | – | – | – | – | – | –
Nc1c(-c2ccc(-c3c(N)[n+]([O-])c4ccccc4[n+]3[O-])cc2)[n+]([O-])c2ccccc2[n+]1[O-] | > 100 µM | 27.1 µM | > 100 µM | 29.8 µM | > 100 µM | – | 29 µM | – | 21.6 µM | – | – | – | – | – | – | – | – | – | – | –
CC(=O)Oc1cc(OC(C)=O)c(OC(C)=O)c2c1CC1C(=O)C3(CCc4ccccc43)C(=O)C1C2 (configuration not stated) | 22.4 µM | 40.9 µM | – | 16.6 µM | 36.7 µM | 28.6 µM | – | – | 42.7 µM | – | – | – | – | – | – | – | – | – | – | –
Cc1cccc(C)c1NC(=O)/C(CC(=O)CC(c1ccccc1)c1c(O)c2ccccc2oc1=O)=N/O (configuration not stated) | > 100 µM | > 100 µM | > 100 µM | > 100 µM | > 100 µM | > 100 µM | > 100 µM | – | > 100 µM | > 100 µM | – | – | – | – | – | – | – | – | – | –
CC(=O)NC1C(OCc2ccccc2)OC(COC(=O)CCCCCCCCCCNC(=O)CCNc2ccc([N+](=O)[O-])c3[nH]c4ccc(O)cc4c(=O)c23)C(O)C1OC(C)C(=O)N[C@H](C(=O)N[C@H](CCC(=O)O)C(N)=O)C(C)C (some centres not stated) | > 100 µM | > 100 µM | > 100 µM | > 100 µM | > 100 µM | > 100 µM | > 100 µM | 45.4 µM | – | – | – | – | – | – | – | – | – | – | – | –
O=C1OC(=O)C2C1C1(c3ccccc3)OC2(c2ccccc2)c2c(Br)c(Br)c(Br)c(Br)c21 (configuration not stated) | > 100 µM | > 100 µM | > 100 µM | > 100 µM | > 100 µM | > 100 µM | > 100 µM | – | > 100 µM | – | – | – | – | – | – | – | – | – | – | –
COc1cc2c(cc1OC)-c1c(c3ccc([N+](=O)[O-])cc3c(=O)n1CCCBr)C2=O | 10.2 µM | > 100 µM | > 100 µM | > 100 µM | > 100 µM | > 100 µM | > 100 µM | – | > 100 µM | > 100 µM | > 100 µM | 1.31 µM | 61.9 µM | 0.461 µM | 71.1 µM | 38.5 µM | 44.3 µM | 33.3 µM | 21.8 µM | –
OCC1C2C=CC(O2)[C@H]1CO (some centres not stated) | > 100 µM | > 100 µM | > 100 µM | > 100 µM | > 100 µM | > 100 µM | > 100 µM | > 100 µM | > 100 µM | – | – | – | – | – | – | – | – | – | – | –
COC(=O)C1=CCS(=O)(=O)C1 | > 100 µM | > 100 µM | > 100 µM | > 100 µM | > 100 µM | > 100 µM | > 100 µM | – | > 100 µM | – | – | – | – | – | – | – | – | – | – | –
O=c1cc(/C=C/c2ccccc2)c2ccc(O/C(=C\c3ccccc3)c3nc4ccccc4c(=O)o3)cc2o1 | 45.5 µM | – | 74.3 µM | 81.1 µM | > 100 µM | – | > 100 µM | – | > 100 µM | – | – | – | – | – | – | – | – | – | – | –
CCC1(O)CC(c2ccccc2)N(C)C(c2ccccc2)C1 (configuration not stated) | > 100 µM | > 100 µM | > 100 µM | > 100 µM | > 100 µM | > 100 µM | > 100 µM | – | > 100 µM | – | – | – | – | – | – | – | – | – | – | –
OC1/C(=C/c2ccccc2)CNC/C1=C\c1ccccc1 (configuration not stated) | > 100 µM | > 100 µM | > 100 µM | > 100 µM | > 100 µM | > 100 µM | > 100 µM | > 100 µM | > 100 µM | – | – | – | – | – | – | – | – | – | – | –
Cc1cc(=O)[nH]c2c1C(=O)C(=O)C=C2 | – | > 100 µM | > 100 µM | – | 73.9 µM | – | > 100 µM | – | 67.8 µM | > 100 µM | 57.8 µM | – | 38.2 µM | 39.5 µM | – | 32.7 µM | – | 42.7 µM | 24.7 µM | –
NCCCSCC(=O)O | – | > 100 µM | > 100 µM | > 100 µM | > 100 µM | > 100 µM | > 100 µM | – | > 100 µM | – | – | – | – | – | – | – | – | – | – | –
COc1cc(Cl)c(C)cc1NC(=O)c1cc2ccccc2cc1O | 6.92 µM | 8.34 µM | 14 µM | 7.09 µM | 10.4 µM | 7.01 µM | 20.7 µM | 11.9 µM | 13.6 µM | – | – | 1.89 µM | 2.88 µM | 2.85 µM | 1.86 µM | 2.7 µM | 2.84 µM | 4.34 µM | 3.27 µM | 2.79 µM
COc1ccc2c(C(=O)NCCCCCC(=O)O)cc3cc4c(cc3c2c1)OCO4 | – | > 100 µM | > 100 µM | > 100 µM | > 100 µM | > 100 µM | > 100 µM | – | > 100 µM | > 100 µM | 75.5 µM | – | > 100 µM | > 100 µM | > 100 µM | > 100 µM | > 100 µM | > 100 µM | > 100 µM | –
COc1cc(C2C(C(=O)Nc3ccccc3C)=C(C)NC(C)=C2C(=O)Nc2ccccc2C)ccc1O | > 100 µM | > 100 µM | > 100 µM | > 100 µM | > 100 µM | > 100 µM | > 100 µM | – | > 100 µM | – | – | – | – | – | – | – | – | – | – | –
